System: drug-resistant clinical isolates of M. tuberculosis
Assay type: cell-based

For `NC(=S)NN=Cc1ccncc1.[O-][Cl+3]([O-])([O-])O` [new treatment], which “MIC for 88.8% of cultures” value is on record?
Its value is 3.125 to 6.25 µg/mL.

Reference: patent publication US9750727B2 (priority 2010, dated 2017)
